Entries after “also recorded” stand apart in the source; their conditions may differ.

For one data set, the system named is T47D cells. The experiment in a line: PrestoBlue viability assay, T47D. It is filed as cell-based. The note with it: 1 nM E2, 72 h treatment, ± SD of 3 biological replicates. How it is done: (§1) T47D, MCF7, TamR3, and MDA-MB-231 cells were starved for 72 h and then seeded into black clear-bottom 96-well plates (Corning Life Sciences Cat#3904) at 20,000 cells/well (T47D, MCF7, TamR3) or 5,000 cells/well (MDA-MB-231). […] 20 µl of PrestoBlue Cell Viability Reagent (Thermo Fisher A13262) was added to each well and incubated at 37 °C for 1 h. Fluorescence intensity was measured using the TECAN F500 plate reader with emission and excitation wavelengths of […], respectively.

The subject of a further data set is TamR3 cells. The experiment in a line: PrestoBlue viability assay, TamR3. It is filed as cell-based. The note with it: 1 nM E2, 72 h treatment, ± SD of 3 biological replicates. How it is done: as §1
The subject of the next data set is MDA-MB-231 cells. The experiment in a line: PrestoBlue viability assay, MDA-MB-231. The note with it: dose response 50 to 0.01 µM, 1 nM E2. Type of data set: cell-based. How it is done:
as §1

A short description of data set [1]: Precipitation in MST assay buffer. Type of data set: physicochemical. The note with it: 2% DMSO, 0.03 to 1000 µM. How it is done:
MST was used to validate the direct binding and measure the binding affinities between the lead compounds and the recombinant ER-LBD. ER-LBD was labeled with red fluorescent dye using a Protein Labeling Kit RED-NHS 2nd Generation (Nanotemper MO-L011) according to the manufacturer’s protocol. The compounds were serially diluted 1:2 in 100% DMSO from 50 to 0.0015 mM, then added to 10 nM of labeled ER protein in the assay buffer (25 mM Tris, pH 8.4, 150 mM NaCl, 20 µM E2, 0.1 mM PMSF, 0.05% Tween20) at final concentrations of 0.03 to 1000 µM. Recombinant proteins in cell free assays are not affected by DMSO concentrations up to 10%. A final concentration of 2% DMSO was chosen for MST as the compounds required this concentration to be soluble in the assay buffer. […] The corresponding data points were removed from the analysis. […] Each protein/compound mixture was then loaded into Monolith Premium Capillaries (Nanotemper MO-K025). All assays were conducted with medium MST power and 20% excitation power. Data analysis and Kd estimation were performed with the MO Affinity Analysis software from Nanotemper.

For data set [2], the target named is T1, ER-SRC3 interaction in MCF7 cells (Homo sapiens, UniProt P03372).
T1 construct: endogenous in cells; host or cells: MCF7 or TamR3 cells
The experiment in a line: Proximity ligation assay (PLA), MCF7. It is filed as cell-based. Particulars: 10 µM, 48 h, E2 stimulation. How it is done:
MCF7 or TamR3 cells were starved for 72 h and then seeded onto PEI coated coverslips in a 6-well plate at 1 × 10^5 cells/well. […] […] […] Coverslips were then permeabilized with 0.05% Triton X-100 for 5 minutes at room temperature. The Duolink In Situ Detection Reagents Red kit from Millipore Sigma (DUO92008) was used for blocking and PLA according to the manufacturer’s protocol. Primary antibodies, Estrogen Receptor alpha antibody (F-10) (sc-8002) and Rabbit anti-SRC3 antibody (A300-348 A), were diluted 1:50 in antibody diluent.

Data set [3] has as its target T2, ER-SRC3 interaction in TamR3 cells (Homo sapiens, UniProt P03372).
T2 construct: endogenous in cells; host or cells: MCF7 or TamR3 cells
The experiment in a line: Proximity ligation assay (PLA), TamR3. Type of data set: cell-based. How it is done: (§2) MCF7 or TamR3 cells were starved for 72 h and then seeded onto PEI coated coverslips in a 6-well plate at 1 × 10^5 cells/well. For the E2 experiments, the cells were treated the following day with 10 µM of ER-AF2 inhibitor for 24 h, with E2 added 1 h before fixation. […] 24 h post-treatment, cells were fixed in methanol:acetone (3:1). Coverslips were then permeabilized with 0.05% Triton X-100 for 5 minutes at room temperature. The Duolink In Situ Detection Reagents Red kit from Millipore Sigma (DUO92008) was used for blocking and PLA according to the manufacturer’s protocol.

Data set [4] concerns the target ER-Y537S - SRC3 interaction (Homo sapiens, UniProt P03372, Y537S). The experiment in a line: Proximity ligation assay, ER-Y537S mutant. It is filed as cell-based. Particulars: PLA, 10 µM. How it is done:
as §2, with “protocol. Primary antibodies, Estrogen Receptor alpha antibody (F-10) (sc-8002) and Rabbit anti-SRC3 antibody (A300-348 A), were diluted 1:50 in antibody diluent.” for “protocol.”

The target in data set [5] is ER-D538G - SRC3 interaction (Homo sapiens, UniProt P03372, D538G). The experiment in a line: Proximity ligation assay, ER-D538G mutant. It is filed as cell-based. Particulars: PLA, 10 µM. How it is done:
as §2, with “protocol. Primary antibodies, Estrogen Receptor alpha antibody (F-10) (sc-8002) and Rabbit anti-SRC3 antibody (A300-348 A), were diluted 1:50 in antibody diluent.” for “protocol.”

Data set [6] addresses T3, GR (ARR3tk-luc) in PC3 cells (Homo sapiens, UniProt P04150).
T3 construct: expressed in transfected cells; host or cells: PC3 cells
The experiment in a line: Nuclear receptor luciferase transcriptional assay, GR. Type of data set: cell-based. The note with it: 1 or 5 µM, 1 nM Dexamethasone. How it is done: (§3) PC3 cells (androgen receptor (AR)-, glucocorticoid receptor (GR)[…], progesterone receptor (PR)-, ER-) were starved for 72 h then seeded into a 96-well plate at a density of 5,000 cells/well. 24 h later, cells were transfected with either ER, AR, GR, or PR and a luciferase plasmid (ERE-luc for ER and ARR3tk-luc for AR, GR, and PR). 24 h post-transfection, cells were simultaneously stimulated with 1 nM E2 for ER, 0.1 nM R1881 for AR, 1 nM Dexamethasone for GR, or 1 nM Levonorgestrel for PR, and treated with 1 or 5 µM of VPC-260724 24 h post-treatment, cells were lysed with 50 µl of passive lysis buffer (Promega #E1910). 20 µl of lysate was transferred to a white flat-bottom 96-well plate (Corning Life Sciences Cat#3912). Luminescence readings were obtained using the TECAN M200 Pro plate reader following the addition of 50 µl of luciferase reagent (Promega Luciferase Assay System E1500).

Data set [7] concerns the target T4, PR (ARR3tk-luc) in PC3 cells (Homo sapiens, UniProt P06401).
T4 construct: expressed in transfected cells; host or cells: PC3 cells
The data set is described as follows: Nuclear receptor luciferase transcriptional assay, PR. Type of data set: cell-based. Particulars: 1 or 5 µM, 1 nM Levonorgestrel. How it is done: as §3

T2 sequence (P03372 whole entry): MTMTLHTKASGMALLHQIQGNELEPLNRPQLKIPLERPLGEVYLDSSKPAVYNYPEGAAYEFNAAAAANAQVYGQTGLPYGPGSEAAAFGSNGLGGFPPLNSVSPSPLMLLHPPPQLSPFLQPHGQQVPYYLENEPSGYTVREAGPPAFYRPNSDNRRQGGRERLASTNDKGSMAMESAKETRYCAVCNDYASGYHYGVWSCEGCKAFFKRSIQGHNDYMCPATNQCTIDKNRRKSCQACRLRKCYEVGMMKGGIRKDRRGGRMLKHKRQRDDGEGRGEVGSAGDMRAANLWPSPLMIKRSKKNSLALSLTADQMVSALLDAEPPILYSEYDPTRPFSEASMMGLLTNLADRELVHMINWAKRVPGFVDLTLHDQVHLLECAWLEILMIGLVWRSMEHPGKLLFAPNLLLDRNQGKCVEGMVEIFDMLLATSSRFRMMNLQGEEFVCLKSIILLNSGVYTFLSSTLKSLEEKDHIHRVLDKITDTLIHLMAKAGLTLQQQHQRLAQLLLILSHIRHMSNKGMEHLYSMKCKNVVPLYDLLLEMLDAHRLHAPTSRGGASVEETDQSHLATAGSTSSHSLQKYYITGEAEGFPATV
T4 sequence (P06401 whole entry): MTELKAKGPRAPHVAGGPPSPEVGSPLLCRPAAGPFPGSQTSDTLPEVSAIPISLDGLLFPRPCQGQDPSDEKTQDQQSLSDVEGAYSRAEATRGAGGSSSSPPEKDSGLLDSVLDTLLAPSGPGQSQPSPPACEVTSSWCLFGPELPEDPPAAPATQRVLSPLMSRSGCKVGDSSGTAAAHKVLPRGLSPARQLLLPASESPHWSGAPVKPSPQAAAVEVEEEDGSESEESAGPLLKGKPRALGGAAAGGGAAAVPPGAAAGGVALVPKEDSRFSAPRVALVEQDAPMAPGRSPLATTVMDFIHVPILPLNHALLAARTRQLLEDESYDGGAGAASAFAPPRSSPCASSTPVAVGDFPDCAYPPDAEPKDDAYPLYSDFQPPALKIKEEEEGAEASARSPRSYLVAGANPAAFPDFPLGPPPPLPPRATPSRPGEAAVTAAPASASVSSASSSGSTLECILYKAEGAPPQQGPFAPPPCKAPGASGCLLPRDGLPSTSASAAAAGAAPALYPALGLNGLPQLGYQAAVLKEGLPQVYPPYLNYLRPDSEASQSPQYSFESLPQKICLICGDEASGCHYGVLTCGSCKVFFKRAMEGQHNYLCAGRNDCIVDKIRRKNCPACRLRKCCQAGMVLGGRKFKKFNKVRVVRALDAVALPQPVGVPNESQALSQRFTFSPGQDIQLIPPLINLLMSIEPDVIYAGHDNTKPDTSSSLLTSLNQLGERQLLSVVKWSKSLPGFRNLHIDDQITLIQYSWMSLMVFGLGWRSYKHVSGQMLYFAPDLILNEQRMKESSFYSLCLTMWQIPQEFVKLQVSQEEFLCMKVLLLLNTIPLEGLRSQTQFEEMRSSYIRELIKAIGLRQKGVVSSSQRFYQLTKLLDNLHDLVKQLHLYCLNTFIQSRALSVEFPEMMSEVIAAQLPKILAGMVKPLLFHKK
ER-Y537S - SRC3 interaction, sequence (P03372 whole entry Y537S): as the sequence (P03372 whole entry) above, with Y537S counted along it
ER-D538G - SRC3 interaction, sequence (P03372 whole entry D538G): as the sequence (P03372 whole entry) above, with D538G counted along it
T1 sequence (P03372 whole entry): as the sequence (P03372 whole entry) above
T3 sequence (P04150 whole entry): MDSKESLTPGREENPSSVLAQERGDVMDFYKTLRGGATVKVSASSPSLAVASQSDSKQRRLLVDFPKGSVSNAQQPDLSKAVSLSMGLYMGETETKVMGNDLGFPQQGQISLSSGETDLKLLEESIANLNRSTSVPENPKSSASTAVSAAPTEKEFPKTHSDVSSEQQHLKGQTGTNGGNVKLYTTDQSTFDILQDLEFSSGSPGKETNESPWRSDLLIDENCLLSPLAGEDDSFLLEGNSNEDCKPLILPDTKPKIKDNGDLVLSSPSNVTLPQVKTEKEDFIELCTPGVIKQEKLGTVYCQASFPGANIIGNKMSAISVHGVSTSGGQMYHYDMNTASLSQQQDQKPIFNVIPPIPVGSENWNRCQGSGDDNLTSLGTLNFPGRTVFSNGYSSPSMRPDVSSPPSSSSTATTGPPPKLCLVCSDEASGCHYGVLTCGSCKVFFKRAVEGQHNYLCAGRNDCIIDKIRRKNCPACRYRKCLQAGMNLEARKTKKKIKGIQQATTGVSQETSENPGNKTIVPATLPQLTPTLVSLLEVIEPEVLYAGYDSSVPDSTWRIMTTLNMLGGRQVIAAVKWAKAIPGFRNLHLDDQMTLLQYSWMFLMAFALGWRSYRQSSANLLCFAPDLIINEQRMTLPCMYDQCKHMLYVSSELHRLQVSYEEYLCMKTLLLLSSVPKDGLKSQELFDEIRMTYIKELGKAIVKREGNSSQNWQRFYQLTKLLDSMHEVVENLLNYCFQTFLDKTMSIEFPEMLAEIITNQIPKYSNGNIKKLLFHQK

As a reminder, the IC50 is the concentration that inhibits the measured activity by half. As for `Cc1cccn2c(CNCc3cccc(N(C)C)n3)cnc12` [VPC-260724], the IC50 with T47D cells amounted to 7.42 ± 2.12 µM; in the data set on T47D cells (Homo sapiens, T47D, 72 h) it was 7.4 µM; in the data set on TamR3 cells it was 28.9 ± 4.55 µM. Besides, in the data set with MDA-MB-231 cells, the “Effect on viability of ER-negative MDA-MB-231 cells” value is “minimal impact; also recorded: did not affect the viability”. The “Precipitation after addition of ER protein” value in [1] is “did not exhibit precipitation at any concentration”. Besides, the “ER-SRC3 interactions (PLA signals per nuclei), MCF7” value in data set [2] is given as “significantly reduced ER-SRC3 interactions”. In data set [3] (10 µM with 1 µM Tamoxifen), the “ER-SRC3 interaction in TamR3 in presence of tamoxifen” value is given as “reduced this interaction”. Moreover, the “ER-SRC3 interactions (PLA signals per nuclei), TamR3” value in [3] (10 µM, 48 h, E2 stimulation) was “significantly reduced ER-SRC3 interactions”. Further, in data set [4], the “Interaction between SRC3 and ER-Y537S” value is on record as “inhibited the interaction”. In addition, the “Interaction between SRC3 and ER-D538G” value in data set [5] is listed as “inhibited the interaction”. For the same compound, in data set [6], the “Transcriptional activity of GR” value was “did not significantly impact”. For the same compound, the “Transcriptional activity of PR” value in [7] is given as “did not significantly impact”.

The values above are taken from PMC11590367, “Characterization of novel small molecule inhibitors of estrogen receptor-activation function 2 (ER-AF2)” (Breast Cancer Research : BCR, 2024).
